Test results reported in patent publication US7357944B2, “Liposomal analgesic drug compositions prepared in GMV using an ammonium sulfate gradient” (New York University, priority 1998, dated 2008).
Where two headings read alike, the source gives them in different places.

Tests used:
mice [1] = test: Tolerability of BUP concentration injected subcutaneously; conditions: 0.15 ml injected
Protocol: (§2) In a control group, mice were injected with 0.15 ml nonliposomal bupivacaine at a concentration of 0.5%, the highest normally tolerated. Cooling was applied either over the injection site or over the abdomen contralateral to the injection site.

[2] = BUP partition between octanol and aqueous ammonium sulfate at various pH; format: physicochemical; conditions: for logD: octanol/aqueous ammonium sulfate, read-out: BUP octanol/(NH4)2(SO4) partition coefficient (converted)
mice [3] = conditions: mouse, in vivo
Protocol: (§1) Analgesia regressed within two hours (see FIG. 13).
To determine the effect on overall body temperature of this treatment, the rectal temperature was measured in all animals cooled over the site of injection (ipsalateral) or over the contralateral abdomen, using both GMV-encapsulated bupivacaine and nonencapsulated (plain) bupivacaine. […] For FIG. 14A, cooling was initiated at zero hours (with administration) and discontinued at nine hours; for FIG. 14B, cooling was initiated at zero hours and discontinued at one hour. There were no significant differences observed as a function of the site of cooling. […] Animals in the GMV group (FIG. 14A) returned to baseline body temperature within about 10 minutes after cessation of cooling.

[4] = pH-dependent aqueous solubility of BUP in 250 mM ammonium sulfate; format: physicochemical; conditions: more concentrated solutions, pH higher than about 6
Protocol: In the present case, the liposomes were incubated with a 50 mg/ml solution of BUP HCl for 45 minutes at 60° C. During this process, the extraliposomal pH should be maintained at a pH less than about 6, e.g. about 5.5, to ensure BUP solubility and prevent precipitation. […] The data was produced by adding various levels of BUP, as indicated, to 250 mM ammonium sulfate at differing pH's. The samples were vortexed and centrifuged, and the amount of dissolved BUP in the supernatant was determined. […] Again, aqueous solubility substantially decreases between pH 6 and 8.

mice [5] = conditions: mouse, in vivo, sc
Protocol: as §2

male Swiss-Webster mice = test: Analgesia (sensory block) after subcutaneous injection, response to cutaneous electrical stimulation; format: in vivo; conditions: 0.15 ml at 0.5%
Protocol: Analgesia was assessed in male Swiss-Webster mice, as described in Example 2, using response to cutaneous electrical stimulation. Prior to administering analgesic, the control vocalization threshold (current required to produce a vocalization response) was determined.
For testing, 150 μl of test solution was injected subcutaneously over the abdomen, and sensory block was assessed at regular intervals, i.e., 15 min for 0.5% BUP formulations and 30 min for 1% and 2% formulations. Failure to vocalize in response to the threshold current was taken as evidence of analgesia. Testing was terminated when two successive stimuli provoked a vocalization. Duration of analgesia was taken as the time from injection to the last stimulus at which no vocalization occurred.
as §1
The Institutional Animal Care and Use Committee approved all experiments. Male Swiss-Webster mice weighing 28±3 g were used. Animals had free access to food and water, and were maintained on a 12 hour dark-light cycle. Prior to testing, the hair overlying the abdomen was shaved. Analgesia was assessed using response to cutaneous electrical stimulation. […] The vocalization threshold was assessed prior to testing, and testing was carried out as described above.

CCCCN1CCCCC1C(=O)Nc1c(C)cccc1C (stereo not drawn) [BUP, bupivacaine]
highest concentration normally tolerated (mice [1]): 0.5%
logD ([2]; pH 2): 0.0253
logD ([2]; pH 4): -0.42
logD ([2]; pH 6): -0.456
logD ([2]; pH 8): 1.18
BUP, mg/ml in (NH4)2(SO4) ([2]; pH 2): 2.30 mg/mL
BUP, mg/ml in octanol ([2]; pH 2): 2.45 mg/mL
BUP, mg/ml in (NH4)2(SO4) ([2]; pH 4): 3.32 mg/mL
BUP, mg/ml in octanol ([2]; pH 4): 1.25 mg/mL
BUP, mg/ml in (NH4)2(SO4) ([2]; pH 6): 3.62 mg/mL
BUP, mg/ml in octanol ([2]; pH 6): 1.28 mg/mL
BUP, mg/ml in (NH4)2(SO4) ([2]; pH 8): 0.32 mg/mL
BUP, mg/ml in octanol ([2]; pH 8): 4.90 mg/mL
delayed return to normal body temperature after cessation of cooling (mice [3]): 25 to 35 min
aqueous solubility of BUP (FIG. 2) [4]: large amounts of BUP precipitated
toxicity (mice [5]): proved toxic
time in which analgesia regressed (male Swiss-Webster mice; s.c., mice, with or without cooling (FIG. 13)): two
effect of skin cooling (about 22° C.) on analgesia (male Swiss-Webster mice; cooling at injection site or contralateral vs no cooling): no difference
